Measured values taken from patent publication US20210163453A1, “DERIVATIVES OF PAPAVERINE THAT ARE EFFECTIVE HYPOXIC TUMOR RADIOSENSITIZERS” (Ohio State Innovation Foundation, priority 2018, published 2021).
Like-named read-outs stand apart in the source and are kept apart here.

Key:
PDE10A = target: T1, PDE10A (Homo sapiens, UniProt Q9Y233); assay: PDE10A enzymatic assay (PDE10A activity assay kit, BPS Bioscience); type: biochemical
T1 construct: purchased BPS Bioscience
Procedure: FIGS. 7A-7D show OCR and cellular toxicity data. […] Bars represent mean OCR and PDE10 inhibitory activities from at least 5 (OCR) or 3 (PDE) replicates. All experiments were repeated at least twice. […] Values are mean+−SEM. […]
The structure activity relationship of PPV relative to two assays was assessed: inhibition of cellular OCR by Seahorse, and inhibition of PDE10A by purified enzyme activity in multiwell plate (PDE10A activity assay kit, BPS Bioscience). […] These lead compounds were synthesized from commercial precursors and purified on silica gel column.

mitochondrial complex 1 = assay: Seahorse OCR inhibition of PPV derivatives, normalized to PPV; type: cell-based
Procedure: FIGS. 7A-7D show OCR and cellular toxicity data. […]. Bars represent mean OCR and PDE10 inhibitory activities from at least 5 (OCR) or 3 (PDE) replicates. All experiments were repeated at least twice. […] Values are mean+−SEM.
(§1) Seahorse analysis of the OCR. Oxygen consumption rate (OCR) was measured using Seahorse XF96 Flux Analyzer (Agilent Technologies). The cells were seeded to attach overnight, wells were washed with pre-warmed XF Calibrant (Agilent Technologies) and the replaced with unbuffered Assay Medium (pH 7.4, 5 mM glucose, 1 mM L-glutamine). The plates were incubated at 37° C. in a CO2-free incubator for 2 hours prior to assay. For succinate rescue assay, cells were permeabilized using XF Plasma Membrane Permeabilizer Reagent (XF PMP, Agilent Technologies) according to the manufacturer's instructions. The OCR rate was measured in 1× Mitochondrial Assay Solution (MAS) (70 mM sucrose, 220 mM mannitol, 10 mM KH2PO4, 5 mM MgCl2, 2 mM Hepes, 0.6% (w/v) fatty acid-free BSA and 1 mM EGTA; pH 7.4). After baseline oxygenation was established, 1 μM rotenone or 10 μM PPV was injected at time A, followed by 5 mM succinate at time B. Error bars represent standard deviation. For the washout experiment, EO771 cells were seeded overnight, then treated with 10 μM PPV or 1 μM rotenone 3 hours prior to OCR measurement. Media was replaced 1 and 2 hours before measurement and OCR reported.
Because PPV's effect on mitochondrial function is independent of cAMP levels it was reasoned that there are two activities in PPV, one inhibiting complex 1 and one inhibiting PDE10A that may reside in different parts of the molecule. The structure activity relationship of PPV relative to two assays was assessed: inhibition of cellular OCR by Seahorse, and inhibition of PDE10A by purified enzyme activity in multiwell plate (PDE10A activity assay kit, BPS Bioscience). Because PPV can compete with rotenone as complex 1 inhibitors, it was reasoned that they may be binding the same site and therefore the structures would be similar relative to the mitochondrial binding target. […] Because the top was a planar structure similar to that of rotenone, and they compete with each other for the same binding pocket on complex 1 (FIG. 10) the lower portion of the molecule and how it may resemble rotenone were investigated in more detail. It was established that flexible linkage was preferred for mitochondrial activity and bulky adducts to the lower benzene ring may block it (FIG. 7C). […] These lead compounds were synthesized from commercial precursors and purified on silica gel column. Structures were confirmed by ^1H NMR and found to be >95% pure by HPLC.

MP2 tumors = assay: ODD-luciferase in vivo oxygen reporter (bioluminescence imaging); parameters: species or system mice; details: orthotopic MP2 CMVluc tumors
Source text: FIGS. 14A-14E summarize results obtained using ODD-luciferase as an in vivo oxygen reporter. […] (n=3-4, P<0.05).
Use of ODD-luciferase as an in vivo oxygen reporter. We have fused the oxygen dependent degradation domain (ODD) of the HIF1a protein to the luciferase reporter protein. This fusion protein is expressed in tumor cells and is stable and reports well in hypoxia, but is destroyed by cellular machinery when cells are well oxygenated (FIG. 14A). These cells were used to grow tumors in immune-deficient mice and the animals were exposed either 95% oxygen/5% CO2 (carbogen) or medical air and the tumor bioluminescence imaged by IVIS 30 minutes post injection. Increasing oxygen breathing decreases reporter signal (FIG. 14B). These animals were then treated with either papaverine or vehicle (FIG. 14C) or SMV32 or vehicle (FIG. 14E).

[1] = test system: oxygen consumption (mitochondrial function); assay: Seahorse XF analysis of oxygen consumption in vitro, cell line not stated; type: cell-based
Procedure: as §1

[2] = test system: model tumors grown in mice; assay: Tumor growth delay with radiation, model tumors pooled; type: in vivo; details: papaverine 30-60 minutes prior to radiation
Procedure: Tumor Growth kinetics. 2×10^6 EO771 or 5×10^6 A549 cells were injected s.c. into the flanks of 6-week old female immunocompetent C57/B6 (EO771) or immunocompromised nu/nu (A549) mice. Caliper measurements of opposing diameter were used to calculate the tumor volumes. Upon reaching […], the tumors were visualized by cone beam CT and treatment plans calculated using SARRP software. X-rays were delivered with a single beam delivering 5 Gy using the Small Animal Research Radiation Platform (SARRP, Xstrahl). Tumor volumes were measured until the post treatment volume increased 3-fold. Error bars represent standard deviation.
Both models of transplanted tumors that were used for the oxygenation experiments of papaverine's effect on radiation response in vivo were investigated. The murine breast cancer line EO771 that is syngeneic with the BL6 strain of mice was used and transplanted it orthotopically into the mammary fat pad of immune-competent mice. Also used was the human A549 lung adenocarcinoma line that was transplanted into the flank of immune-deficient mice. The breast cancers grew to approximately 150 mm^3 and were then randomized to receive either no treatment, a single dose of either 5 Gy, or papaverine at 2 mg/kg followed 30-40 minutes later by 5 Gy. […]

EO771 cells = type: cell-based, Murine; details: for competition with rotenone on OCR: PPV given before rotenone; for inhibition of oxygen consumption (OCR), effective concentration (words): real time Seahorse XF dose response
Procedure: Error bars represent standard deviation.
FIGS. 2A-2D are OCR measurements and cell viability assessments. FIG. 2A-2B are representative of OCR measurement in competition assay between PPV and complex I inhibitors piericidin A (FIG. 2A) and capsaicin (FIG. 2B). Values represent the means+−SD. […] Bar charts represent mean of viable cells in duplicates+−standard deviation.
as §1

T1 sequence (Q9Y233 267-1055): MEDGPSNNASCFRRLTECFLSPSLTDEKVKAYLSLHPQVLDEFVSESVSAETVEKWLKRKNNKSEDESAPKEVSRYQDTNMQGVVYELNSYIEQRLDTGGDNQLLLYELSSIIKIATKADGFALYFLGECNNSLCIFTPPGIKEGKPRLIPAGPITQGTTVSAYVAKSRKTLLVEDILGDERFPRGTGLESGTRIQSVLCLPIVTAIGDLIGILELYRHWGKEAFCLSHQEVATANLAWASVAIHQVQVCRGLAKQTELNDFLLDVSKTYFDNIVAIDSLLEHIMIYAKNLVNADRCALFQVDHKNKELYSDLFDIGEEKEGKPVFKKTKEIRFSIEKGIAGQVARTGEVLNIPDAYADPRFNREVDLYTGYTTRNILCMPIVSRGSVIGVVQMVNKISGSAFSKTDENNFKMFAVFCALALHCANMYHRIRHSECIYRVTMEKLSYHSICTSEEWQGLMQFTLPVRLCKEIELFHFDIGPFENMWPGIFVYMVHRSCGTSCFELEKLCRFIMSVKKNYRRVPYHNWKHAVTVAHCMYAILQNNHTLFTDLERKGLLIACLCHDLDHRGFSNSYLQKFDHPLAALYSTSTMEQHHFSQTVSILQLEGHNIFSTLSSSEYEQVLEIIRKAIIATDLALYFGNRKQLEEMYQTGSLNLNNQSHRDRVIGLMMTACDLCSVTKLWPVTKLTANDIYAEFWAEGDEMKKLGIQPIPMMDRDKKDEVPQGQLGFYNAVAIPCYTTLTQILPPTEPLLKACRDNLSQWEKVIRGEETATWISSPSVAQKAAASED

| Compound | IC20 (PDE10A; PDE10A2 enzymatic assay, n=3 replicates, read-out: PDE IC20 (PDE10A IC20)) | Inhibitory activity PDE10A % of PPV (PDE10A; PDE10A inhibition at 1 μM, normalized to PPV) | PDE10 activity compared to PPV (PDE10A; compared to PPV) | activity in cellular OCR assay (mitochondrial complex 1; Seahorse) | Inhibitory activity OCR % of PPV (mitochondrial complex 1; Seahorse, OCR inhibition at 10 μM concentration, normalized to PPV) | complex 1 activity compared to PPV (mitochondrial complex 1; compared to PPV) | CMV luciferase (non-hypoxia responsive) control signal (MP2 tumors) | inhibition of oxygen consumption / mitochondrial function in vitro [1] | increase of relative growth delay of a single dose of radiation [2] | increase of relative growth delay of a single dose of radiation ([2]; listed as papaverine) | efficiency at rotenone binding pocket relative to rotenone (EO771 cells) | competition with rotenone on OCR (EO771 cells) | competition with rotenone on OCR (EO771 cells; listed as papaverine) | interaction with complex 1 inhibitors piericidin A or capsaicin (EO771 cells; competition assay) | inhibition of oxygen consumption (OCR), effective concentration (words) (EO771 cells) | inhibition of oxygen consumption (OCR), effective concentration (words) (EO771 cells; listed as Papaverine) |
| --- | --- | --- | --- | --- | --- | --- | --- | --- | --- | --- | --- | --- | --- | --- | --- | --- |
| COc1cc2ccnc(Cc3cccc4ccccc34)c2cc1OC [SMV-32] | 12 µM | 38.66 % of PPV | 40% | approaching that of rotenone | 159.3 % of PPV | 160% |  |  |  |  |  |  |  |  |  |  |
| COc1ccc(Cc2nccc3cc(OC)c(OC)cc23)cc1OC [PPV, papaverine] |  |  |  |  |  |  | did not show any change | effective at inhibiting oxygen consumption | 2-4 fold | 1.9-3.9 fold | approximately 100 × lower efficiency | block the activity of the classical complex 1 inhibitor rotenone | blocked rotenone's inhibitory activity | no interaction | effective at low micromolar concentrations | rapidly inhibited oxygen consumption at low micromolar concentrations |
